For data set [1], the system named is erythrocyte chloride channels. Kind of data set: Cl- conductance (GCl) from concomitant measurements of conductive Cl- netfluxes and membrane potentials in suspensions of normal erythrocytes. The class given is cell-based, Human. To be noted: suspension of normal erythrocytes; read-out: IC50-value for block of GCl. The text has this:
(§1) The compounds of the present invention are potent blockers of chloride channels in normal as well as sickle cell erythrocytes.
(§2) All dose-response experiments were therefore performed by concomitant measurements of conductive netfluxes of Cl^− (JCl) and membrane potentials (Vm) in suspensions of erythrocytes (Bennekou, P. and Christophersen, P. (1986), Flux ratio of Valinomycin—Mediated K^+ Fluxes across the Human Red Cell Membrane in the presence of the Protronophore CCCP. J. Membrane Biol. 93, 221-227. ). The membrane Cl^−-conductances were calculated by the following equation (Hodgkin, A. L. and Huxley, A. F. (1952) The components of membrane conductance in the giant axon of loligo. J. Physiol. Lond. 116, 449-472): [formula]
(§3) where F is the Faraday constant and ECl is the Nernst potential for the Cl-ion.

Data set [2] relates to chloride channels of sickle cell erythrocytes. The data set is described as follows: Cl- conductance (GCl) in oxygenated and deoxygenated homozygoteous sickle cell erythrocytes. It is filed as cell-based, Human. To be noted: oxygenated as well as deoxygenated homozygoteous sickle cell erythrocytes; compared with normal erythrocytes.
Description: as §1, §2, §3

The next data set relates to erythrocytes. The data set is described as follows: Valinomycin induced cell volume loss (relative volume of packed cells). It is filed as cell-based. To be noted: valinomycin for 5 min. As to the method: Inducing a massive water and salt loss (KCI) by addition the K^+-ionophore valinomycin to the suspension for 5 min reduced the cell volume by 26%.
A further data set relates to sickle erythrocytes. Kind of data set: K+ flux from sickle erythrocytes, basal and deoxygenation induced (extracellular K+-concentration vs time). The class given is cell-based. To be noted: 10 μM; oxygenated sickle erythrocytes. The text has this: Deoxygenation induced permeability increases of sickle cells were estimated by measuring the extracellular K^+-concentration vs time. […] The K^+ flux from oxygenated sickle erythrocytes was 2-3 times higher than from normal erythrocytes and these fluxes was accelerated 4-8 times upon deoxygenation.

In another data set the test system is mice. Kind of data set: Toxicity to mice. The class given is in vivo. To be noted: up to 150 mg/kg i.p. and i.v. The method, then: N-(3-Trifluoromethylphenyl)-N′-(2-carboxyphenyl) urea was non-toxic to mice at concentrations up to 150 mg/kg i.p. and i.v.

We go through one compound from patent US6417393B1, “Phenyl derivatives containing an acidic group, their preparation and their use as chloride channel blockers” (Neurosearch A/S, priority 1996, dated 2002).

As usually defined, the IC50 is the midpoint of a concentration-inhibition curve. For the compound `O=C(Nc1cccc(C(F)(F)F)c1)Nc1ccccc1C(=O)O` [3′-Trifluoromethylphenyl-2-carboxyphenyl Urea], the IC50 in data set [1] amounted to 0.6 µM; in the data set on erythrocytes (Erythrocyte, 5 min, read-out: IC50-value for reduction of valinomycin induced volume loss), 1.2 µM. Besides, the “block of GCl from sickle cell erythrocytes” value in data set [2] is reported as “equipotently blocked”. The “cell volume loss remaining in presence of compound” value in the data set on erythrocytes (volume loss without compound 26%) was determined as 7%. Also, the “basal K+-flux from sickle erythrocytes” value with sickle erythrocytes is on record as “normalised”. Further, the toxicity to mice entry with mice was “non-toxic”.
